# Assay results from patent US11136321B2, “Tricyclic compounds” (ALIGOS THERAPEUTICS, INC., priority 2019, dated 2021).
# System: HBV
# Assay: HBV-DNA antiviral assay using HepG2.117 cells
# Type: cell-based, genotype D HBV
# Conditions: Hepatitis B virus, 72 h, intracellular HBV DNA by qPCR, 3 days incubation
# Protocol: The following assay procedure describes the HBV antiviral assay, using HepG2.117 cells, which carry a stably integrated genotype D HBV genome under the control of a Tet-off promoter, and intracellular HBV DNA quantification as endpoint. Cell viability is assessed in parallel by measuring the intracellular ATP content using ATPlite (Perkin Elmer).
# On day 0, HepG2.117 cells (which are maintained in routine cell culture with doxycycline present in the medium at a final concentration of 1 μg/mL) were seeded in 96-well plates (white with clear bottom) at a density of 2.0×10^4 cells/well (0.1 mL/well) in medium without doxycycline to induce pgRNA transcription and subsequent formation of HBV particles. The cells were incubated at 37° C. and 5% CO2.
# On day 1, medium was removed from each well, the test articles were diluted in culture medium without doxcycyline and 100 μL was added to cell culture wells (9 concentrations, 4-fold dilution). For each plate, 6 untreated (merely DMSO) wells were included. The final concentration of DMSO in the culture medium was 2%. Each plate was prepared in duplicate (one for HBV DNA extraction, one for ATPlite measurement). The cells were incubated at 37° C. and 5% CO2 for 3 days.
# On day 4, cell viability was assessed using ATPlite and cell lysates were prepared for HBV DNA extraction and subsequent quantification by qPCR.
# Medium was removed from each well and 100 μL of 0.33% NP-40 in H2O was added to each well. Plates were sealed, incubated at 4° C. for 5 mins, vortexed extensively and centrifuged briefly. Next, 35 μL of lysate was added to 65 μL QuickExtract DNA Extraction Solution (Epicentre) in a PCR plate for each well. PCR plate was incubated at 65° C. for 6 mins, 98° C. for 2 mins and finally cooled to 4° C. HBV DNA was then quantified by qPCR with HBV-specific primers and probes as specified in Table 1 using the Bio-Rad SSOAdvanced Universal Probes Supermix on a CFX96 machine (Bio-Rad). The PCR cycle program consisted of 95° C. for 3 mins, followed by 40 cycles at 95° C. for 10 sec and 60° C. for 30 sec.
# A DNA standard was prepared by dilution of an IDT gBlock corresponding to the amplicon with concentrations ranging from 10^2 to 10^8 copies/input (i.e. per 4 μL) and used to generate a standard curve by plotting Cq values vs. HBV DNA standard concentration. The quantity of HBV DNA in each sample was determined by interpolating from the standard curve.
# Cell viability was calculated as follows: % Cell viability=(luminescence value of test sample)/(average luminescence value of 2% DMSO control)×100%. HBV DNA inhibition was calculated as follows: 100−(HBV DNA copy number of test sample)/(average HBV DNA copy number of 2% DMSO control)×100%. No normalization to entecavir was required due to the excellent dynamic window of this assay. The CC50, EC50 and EC90 values were determined by dose-response curves fitted by GraphPad Prism using “log (agonist) vs. response—Variable slope”.
row,Compound,EC50
1,"O=C(c1ccc(Br)cc1)N1CCc2c(n3nccc3n(-c3ccccc3)c2=O)C1 [Compound 3, 8-(4-bromobenzoyl)-4-phenyl-6,7,8,9-tetrahydropyrazolo[1,5-a]pyrido[4,3-e]pyrimidin-5(4H)-one]",> 5 µM
2,"O=C(c1ccc(Br)c(F)c1)N1CCc2c(n3nccc3n(-c3ccccc3)c2=O)C1 [Compound 4, 8-(4-bromo-3-fluorobenzoyl)-4-phenyl-6,7,8,9-tetrahydropyrazolo[1,5-a]pyrido[4,3-e]pyrimidin-5(4H)-one]",> 5 µM
3,"Cc1cnn2c3c(c(=O)n(-c4ccccc4)c12)CCN(C(=O)c1ccc(Br)c(F)c1)C3 [Compound 8, 12-(4-bromo-3-fluorobenzoyl)-5-methyl-7-phenyl-2,3,7,12-tetraazatricyclo[7.4.0.0^[2,6]]trideca-1(9),3,5-trien-8-one]",0.5 to 5 µM
4,"O=C(c1ccc(Br)c(F)c1)N1CCc2c(n3ncc(Cc4ccccc4)c3n(-c3ccccc3)c2=O)C1 [Compound 9, 5-benzyl-12-(4-bromo-3-fluorobenzoyl)-7-phenyl-2,3,7,12-tetraazatricyclo[7.4.0.0^[2,6]]trideca-1(9),3,5-trien-8-one]",0.1 to 0.5 µM
5,"Cc1cnn2c3c(c(=O)n(-c4ccccc4)c12)CCN(C(=O)c1ccc(Br)c(Cl)c1)C3 [Compound 10, 12-(4-bromo-3-chlorobenzoyl)-5-methyl-7-phenyl-2,3,7,12-tetraazatricyclo[7.4.0.0^[2,6]]trideca-1(9),3,5-trien-8-one]",0.1 to 0.5 µM
6,"O=C(c1ccc(Br)c(Cl)c1)N1CCc2c(n3ncc(Cc4ccccc4)c3n(-c3ccccc3)c2=O)C1 [Compound 12, 5-benzyl-12-(4-bromo-3-chlorobenzoyl)-7-phenyl-2,3,7,12-tetraazatricyclo[7.4.0.0^[2,6]]trideca-1(9),3,5-trien-8-one]",0.1 to 0.5 µM
7,"CC(C)c1cnn2c3c(c(=O)n(-c4ccccc4)c12)CCN(C(=O)c1ccc(Br)c(Cl)c1)C3 [Compound 13, 12-(4-bromo-3-chlorobenzoyl)-5-isopropyl-7-phenyl-2,3,7,12-tetraazatricyclo[7.4.0.0^[2,6]]trideca-1(9),3,5-trien-8-one]",0.5 to 5 µM
8,"COc1ccc(Cn2c(=O)c3c(n4ncc(Cc5ccccc5)c24)CN(C(=O)c2ccc(Cl)c(Cl)c2)CC3)cc1 [Compound 14, 5-benzyl-12-(3,4-dichlorobenzoyl)-7-[(4-methoxyphenyl)methyl]-2,3,7,12-tetrazatricyclo [7.4.0.0^2,6] trideca-1(9),3,5-trien-8-one]",0.5 to 5 µM
9,"CC(C)CNc1cnn2c3c(c(=O)n(-c4ccccc4)c12)CCN(C(=O)c1ccc(Cl)c(Cl)c1)C3 [Compound 15, 12-(3,4-dichlorobenzoyl)-5-(isobutylamino)-7-phenyl-2,3,7,12-tetrazatricyclo [7.4.0.0^2,6] trideca-1(9),3,5-trien-8-one]",> 5 µM
10,"CC(C)CNC(=O)c1cnn2c3c(c(=O)n(-c4ccccc4)c12)CCN(C(=O)c1ccc(Cl)c(Cl)c1)C3 [Compound 19, 12-(3,4-dichlorobenzoyl)-N-isobutyl-8-oxo-7-phenyl-2,3,7,12-tetrazatricyclo [7.4.0.0^2,6] trideca-1(9),3,5-triene-5-carboxamide]",> 5 µM
11,"O=C(NCc1ccccc1)c1cnn2c3c(c(=O)n(-c4ccccc4)c12)CCN(C(=O)c1ccc(Cl)c(Cl)c1)C3 [Compound 20, N-benzyl-12-(3,4-dichlorobenzoyl)-8-oxo-7-phenyl-2,3,7,12-tetrazatricyclo [7.4.0.0^2,6] trideca-1(9),3,5-triene-5-carboxamide]",> 5 µM
12,"COc1ccc(-n2c(=O)c3c(n4ncc(NC(=O)Cc5ccccc5)c24)CN(C(=O)c2ccc(Cl)c(Cl)c2)CC3)cc1 [Compound 23, N-[12-(3,4-dichlorobenzoyl)-7-(4-methoxyphenyl)-8-oxo-2,3,7,12-tetrazatricyclo [7.4.0.0 2,6]trideca-1(9),3,5-trien-5-yl]-2-phenyl-acetamide]",0.5 to 5 µM
13,"COc1ccc(-n2c(=O)c3c(n4ncc(NS(C)(=O)=O)c24)CN(C(=O)c2ccc(Cl)c(Cl)c2)CC3)cc1 [Compound 26, N-[12-(3,4-dichlorobenzoyl)-7-(4-methoxyphenyl)-8-oxo-2,3,7,12-tetrazatricyclo [7.4.0.0 2,6]trideca-1(9),3,5-trien-5-yl] methanesulfonamide]",0.5 to 5 µM
14,"O=C(c1ccc(Cl)c(Cl)c1)N1CCc2c(n3ncc(Cc4ccccc4)c3n(-c3ccccc3)c2=O)C1 [Compound 27, 5-benzyl-12-(3,4-dichlorobenzoyl)-7-phenyl-2,3,7,12-tetrazatricyclo [7.4.0.0 2,6] trideca-1(9),3,5-trien-8-one]",≤ 0.1 µM

# Same assay, conditions: intracellular HBV DNA by qPCR, 3 days incubation
row,Compound,EC50
1,"O=C(c1ccc(Br)c(Cl)c1)N1CCc2c(n3nccc3n(-c3ccccc3)c2=O)C1 [Compound 5, 12-(4-bromo-3-chlorobenzoyl)-7-phenyl-2,3,7,12-tetraazatricyclo[7.4.0.0^[2,6]]trideca-1(9),3,5-trien-8-one]",0.5 to 5 µM
2,"O=C(c1ccc(Br)c(Cl)c1)N1CCc2c(n3nccc3n(Cc3ccccc3)c2=O)C1 [Compound 6, 7-benzyl-12-(4-bromo-3-chlorobenzoyl)-2,3,7,12-tetraazatricyclo[7.4.0.0^[2,6]]trideca-1(9),3,5-trien-8-one]",0.5 to 5 µM
3,"Cc1cc2n(-c3ccccc3)c(=O)c3c(n2n1)CN(C(=O)c1ccc(Br)c(F)c1)CC3 [Compound 7, 12-(4-bromo-3-fluorobenzoyl)-4-methyl-7-phenyl-2,3,7,12-tetraazatricyclo[7.4.0.0^[2,6]]trideca-1(9),3,5-trien-8-one]",> 5 µM
4,"O=C(c1ccc(Br)c(Cl)c1)N1CCc2c(n3nc(Cc4ccccc4)cc3n(-c3ccccc3)c2=O)C1 [Compound 11, 4-benzyl-12-(4-bromo-3-chlorobenzoyl)-7-phenyl-2,3,7,12-tetraazatricyclo[7.4.0.0^[2,6]]trideca-1(9),3,5-trien-8-one]",> 5 µM
5,"CC(C)NC(=O)c1cnn2c3c(c(=O)n(-c4ccccc4)c12)CCN(C(=O)c1ccc(Cl)c(Cl)c1)C3 [Compound 16, 12-(3,4-dichlorobenzoyl)-N-isopropyl-8-oxo-7-phenyl-2,3,7,12-tetraazatricyclo[7.4.0.0^[2,6]]trideca-1(9),3,5-triene-5-carboxamide]",> 5 µM
6,"CC(C)CC(=O)Nc1cnn2c3c(c(=O)n(-c4ccccc4)c12)CCN(C(=O)c1ccc(Cl)c(Cl)c1)C3 [Compound 17, N-[12-(3,4-dichlorobenzoyl)-8-oxo-7-phenyl-2,3,7,12-tetraazatricyclo[7.4.0.0^[2,6]]trideca-1(9),3,5-trien-5-yl]-3-methylbutanamide]",> 5 µM
7,"O=C(c1ccc(Cl)c(Cl)c1)N1CCc2c(n3ncc(NCc4ccccc4)c3n(-c3ccccc3)c2=O)C1 [Compound 18, 5-(benzylamino)-12-(3,4-dichlorobenzoyl)-7-phenyl-2,3,7,12-tetraazatricyclo[7.4.0.0^[2,6]]trideca-1(9),3,5-trien-8-one]",0.5 to 5 µM
8,"COc1ccc(-n2c(=O)c3c(n4ncc(NC(C)=O)c24)CN(C(=O)c2ccc(Cl)c(Cl)c2)CC3)cc1 [Compound 21, N-[12-(3,4-dichlorobenzoyl)-7-(4-methoxyphenyl)-8-oxo-2,3,7,12-tetrazatricyclo [7.4.0.0^2,6]trideca-1(9),3,5-trien-5-yl]acetamide]",> 5 µM
9,"COc1ccc(-n2c(=O)c3c(n4ncc(NC(=O)C(C)C)c24)CN(C(=O)c2ccc(Cl)c(Cl)c2)CC3)cc1 [Compound 22, N-[12-(3,4-dichlorobenzoyl)-7-(4-methoxyphenyl)-8-oxo-2,3,7,12-tetrazatricyclo [7.4.0.0^2,6]trideca-1(9),3,5-trien-5-yl]-2-methyl-propanamide]",> 5 µM
10,"COc1ccc(-n2c(=O)c3c(n4ncc(Cc5ccccc5)c24)CN(C(=O)c2ccc(Cl)c(Cl)c2)CC3)cc1 [Compound 24, 5-benzyl-12-(3,4-dichlorobenzoyl)-7-(4-methoxyphenyl)-2,3,7,12-tetraazatricyclo[7.4.0.0^[2,6]]trideca-1(9),3,5-trien-8-one]",0.1 to 0.5 µM
11,"COc1ccc(-n2c(=O)c3c(n4ncc(NCc5ccccc5)c24)CN(C(=O)c2ccc(Cl)c(Cl)c2)CC3)cc1 [Compound 25, 5-(benzylamino)-12-(3,4-dichlorobenzoyl)-7-(4-methoxyphenyl)-2,3,7,12-tetraazatricyclo[7.4.0.0^[2,6]]trideca-1(9),3,5-trien-8-one]",≤ 0.1 µM
